Converted amounts (≈) assume the structure as drawn.

Series [1] is described as follows: Tmax in tuberculosis patient at […], po administered for 7 days by HPLC. The note with it: human, in vivo. The series is classed as ADME, organism-based.
In series [2] the test system is Mycobacterium tuberculosis. Nature of the series: microbe, parasite or virus in culture. The note with it: 168 h.
Description: Antimicrobial activity against Mycobacterium tuberculosis infected in patient at 400 mg/day, po administered for 7 days by HPLC
Series [3] can be described thus: clinical. The note with it: human, in vivo, po, 400 mg/day.
Description: Tmax in tuberculosis patient at 400 mg/day, po administered for 7 days by HPLC
Series [4] in a line: Ratio of fAUC in tuberculosis patient at 1000 mg/day, po administered for 7 days to MIC for Mycobacterium tuberculosis. The series is classed as functional.
The nature of series [5]: clinical. The note with it: human, in vivo, po, 1000 mg/day.
Description: Cmax in tuberculosis patient at 1000 mg/day, po administered for 7 days by HPLC
Series [6] deals with Mycobacterium tuberculosis. The series is classed as functional. The note with it: 168 h.
A short description of series [7]: Clearance in tuberculosis patient at 1000 mg/day, po administered for 7 days measured after 24 hrs by HPLC. Format: ADME, organism-based. The note with it: human, in vivo.

Take `COc1c(N2CCNC(C)C2)c(F)cc2c(=O)c(C(=O)O)cn(C3CC3)c12` (centres undefined) [GATIFLOXACIN]: the Tmax in series [1] amounted to 8 h. The compound also showed an MIC in series [2] of 0.2 µg/mL (≈ 0.533 µM). The Tmax at 168 h in “clinical [3]” came out at 2 h.
`C[C@H]1COc2c(N3CCN(C)CC3)c(F)cc3c(=O)c(C(=O)O)cn1c23.C[C@H]1COc2c(N3CCN(C)CC3)c(F)cc3c(=O)c(C(=O)O)cn1c23.O` [LEVOFLOXACIN]: in series [4], the RatioAUC/MIC is 187.67. This compound gave a Cmax at 168 h in “clinical [5]” of 9000 ng/mL. The MIC in series [6] is 0.5 µg/mL. Also, in series [7], the CL/F is 79 mL/min.
Consider `COc1c(N2C[C@@H]3CCCN[C@@H]3C2)c(F)cc2c(=O)c(C(=O)O)cn(C3CC3)c12` [MOXIFLOXACIN], for which, in series [2], the MIC came to 0.5 µg/mL (≈ 1.25 µM). For the same compound, the Tmax at 168 h in the series “clinical [3]” came to 2 h.

Usually Tmax stands for the time from dosing to the highest level. As a reminder, the Cmax is the maximum level reached in the sampled fluid or tissue. The term CL/F denotes clearance divided by bioavailability, as obtained after extravascular dosing.

The record behind these values is ChEMBL document CHEMBL1275405, “Population pharmacokinetics of levofloxacin, gatifloxacin, and moxifloxacin in adults with pulmonary tuberculosis” (Antimicrob Agents Chemother, 2008).
